This passage reports IC50 results from US11311542B2, “Inhibitors of cyclin dependent kinase 7 (CDK7)” (Syros Pharmaceuticals, Inc., priority 2018, dated 2022).

One assay relates to HCC70 cells. In words: Inhibition of cell proliferation (CyQUANT Direct), HCC70. The assay is classed as cell-based, human. The note with it: Homo sapiens, HCC70, 72-hour.
For the next assay, the system named is COV318 cells. As to the kind of experiment: Inhibition of cell proliferation (CyQUANT Direct), COV318. The note with it: Homo sapiens, COV318, 72-hour. The class given is cell-based, human.
The next assay deals with CDK2/Cyclin E1 complex (Homo sapiens, UniProt P24941). As to the kind of experiment: CDK2 kinase inhibition assay (Caliper/LabChip EZ Reader).
Assay [1] deals with CDK12 (aa686-1082)/Cyclin K complex (Homo sapiens, UniProt Q9NYV4). As to the kind of experiment: CDK12 kinase inhibition assay (Caliper/LabChip EZ Reader).
Chain of CDK12 (aa686-1082)/Cyclin K complex (Q9NYV4 686-1082): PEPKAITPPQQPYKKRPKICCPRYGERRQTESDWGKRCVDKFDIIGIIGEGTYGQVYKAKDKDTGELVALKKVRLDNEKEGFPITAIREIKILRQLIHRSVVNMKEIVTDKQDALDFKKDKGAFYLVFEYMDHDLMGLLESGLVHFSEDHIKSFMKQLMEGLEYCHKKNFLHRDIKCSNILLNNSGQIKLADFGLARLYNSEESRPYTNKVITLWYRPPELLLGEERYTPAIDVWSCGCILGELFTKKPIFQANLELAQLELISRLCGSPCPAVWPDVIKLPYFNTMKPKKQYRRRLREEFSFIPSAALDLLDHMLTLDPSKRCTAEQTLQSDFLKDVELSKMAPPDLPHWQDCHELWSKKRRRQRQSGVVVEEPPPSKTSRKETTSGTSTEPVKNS
Chain of CDK12 (aa686-1082)/Cyclin K complex (O75909 whole entry partner, the tested form may be a part): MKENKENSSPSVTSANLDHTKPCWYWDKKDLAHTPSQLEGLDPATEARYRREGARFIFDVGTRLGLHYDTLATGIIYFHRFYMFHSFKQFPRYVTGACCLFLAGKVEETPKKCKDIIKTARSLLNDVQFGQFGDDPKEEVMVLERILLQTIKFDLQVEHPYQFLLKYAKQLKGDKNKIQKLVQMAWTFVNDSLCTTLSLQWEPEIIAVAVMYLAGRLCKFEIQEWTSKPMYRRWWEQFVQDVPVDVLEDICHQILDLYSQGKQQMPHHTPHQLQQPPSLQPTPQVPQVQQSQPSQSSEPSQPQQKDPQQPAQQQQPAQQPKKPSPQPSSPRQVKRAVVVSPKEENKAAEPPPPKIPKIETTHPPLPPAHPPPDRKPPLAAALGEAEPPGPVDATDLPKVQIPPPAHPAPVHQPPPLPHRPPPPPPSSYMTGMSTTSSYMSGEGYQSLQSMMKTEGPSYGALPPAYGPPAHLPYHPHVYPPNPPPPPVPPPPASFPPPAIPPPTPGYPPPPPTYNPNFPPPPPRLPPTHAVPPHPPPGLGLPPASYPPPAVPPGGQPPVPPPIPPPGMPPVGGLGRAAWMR
In a further assay the test system is COV504 cells. As to the kind of experiment: Inhibition of cell proliferation (CyQUANT Direct), COV504. The class given is cell-based, human. The note with it: Homo sapiens, COV504, 72-hour.
The target in another assay is CDK9/Cyclin T1 complex (Homo sapiens, UniProt P50750). In words: CDK9 kinase inhibition assay (Caliper/LabChip EZ Reader).
Chain of CDK9/Cyclin T1 complex (P50750 whole entry): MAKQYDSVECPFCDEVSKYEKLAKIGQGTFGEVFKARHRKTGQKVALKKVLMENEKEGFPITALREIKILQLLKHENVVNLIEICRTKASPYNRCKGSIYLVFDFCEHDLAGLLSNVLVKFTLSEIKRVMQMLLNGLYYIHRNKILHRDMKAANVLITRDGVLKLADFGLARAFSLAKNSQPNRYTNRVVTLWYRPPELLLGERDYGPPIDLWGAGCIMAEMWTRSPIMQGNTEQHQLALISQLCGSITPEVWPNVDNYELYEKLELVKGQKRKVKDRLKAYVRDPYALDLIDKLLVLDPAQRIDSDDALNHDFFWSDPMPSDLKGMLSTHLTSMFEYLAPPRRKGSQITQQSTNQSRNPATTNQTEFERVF
Chain of CDK9/Cyclin T1 complex (O60563 whole entry partner): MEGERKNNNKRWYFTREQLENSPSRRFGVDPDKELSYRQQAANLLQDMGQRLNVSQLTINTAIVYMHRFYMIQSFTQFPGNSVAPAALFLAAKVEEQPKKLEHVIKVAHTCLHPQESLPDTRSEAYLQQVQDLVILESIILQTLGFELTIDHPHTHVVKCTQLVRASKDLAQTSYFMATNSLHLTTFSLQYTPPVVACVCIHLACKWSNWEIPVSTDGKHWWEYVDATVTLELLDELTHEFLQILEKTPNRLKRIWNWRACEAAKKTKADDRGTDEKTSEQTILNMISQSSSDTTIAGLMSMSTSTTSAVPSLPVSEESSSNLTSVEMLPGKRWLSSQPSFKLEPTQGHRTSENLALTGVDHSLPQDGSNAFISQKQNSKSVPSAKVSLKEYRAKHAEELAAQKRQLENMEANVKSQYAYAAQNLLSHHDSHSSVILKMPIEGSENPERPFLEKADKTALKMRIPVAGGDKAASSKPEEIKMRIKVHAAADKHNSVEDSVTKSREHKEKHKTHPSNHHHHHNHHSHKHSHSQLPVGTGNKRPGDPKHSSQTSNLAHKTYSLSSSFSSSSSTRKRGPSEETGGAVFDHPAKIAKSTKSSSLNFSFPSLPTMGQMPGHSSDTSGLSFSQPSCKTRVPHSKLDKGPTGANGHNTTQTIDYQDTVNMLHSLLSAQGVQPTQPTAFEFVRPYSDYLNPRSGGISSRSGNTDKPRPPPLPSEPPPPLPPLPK
Assay [2] deals with CDK7/Cyclin H/MAT1 complex (Homo sapiens, UniProt P50613). In words: CDK7 kinase inhibition assay (Caliper/LabChip EZ Reader).
Chain of CDK7/Cyclin H/MAT1 complex (P50613 whole entry): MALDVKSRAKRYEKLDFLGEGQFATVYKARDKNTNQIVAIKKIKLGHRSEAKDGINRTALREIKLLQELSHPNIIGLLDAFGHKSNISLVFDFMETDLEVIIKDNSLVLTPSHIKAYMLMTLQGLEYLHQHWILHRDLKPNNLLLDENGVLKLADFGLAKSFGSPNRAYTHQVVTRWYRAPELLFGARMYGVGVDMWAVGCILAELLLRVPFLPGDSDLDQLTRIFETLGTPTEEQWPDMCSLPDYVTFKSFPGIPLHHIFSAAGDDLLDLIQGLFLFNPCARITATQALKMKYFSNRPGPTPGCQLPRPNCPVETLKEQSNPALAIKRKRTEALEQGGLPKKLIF
Chain of CDK7/Cyclin H/MAT1 complex (P51946 whole entry partner): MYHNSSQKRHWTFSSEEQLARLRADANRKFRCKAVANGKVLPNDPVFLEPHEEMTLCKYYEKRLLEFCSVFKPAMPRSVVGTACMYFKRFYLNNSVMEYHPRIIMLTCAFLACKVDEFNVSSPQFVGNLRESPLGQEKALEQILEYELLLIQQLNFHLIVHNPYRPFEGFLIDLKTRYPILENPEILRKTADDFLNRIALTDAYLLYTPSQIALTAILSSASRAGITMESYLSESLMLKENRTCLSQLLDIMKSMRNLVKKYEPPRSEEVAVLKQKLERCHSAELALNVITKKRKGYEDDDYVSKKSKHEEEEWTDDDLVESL
Chain of CDK7/Cyclin H/MAT1 complex (P51948 whole entry partner): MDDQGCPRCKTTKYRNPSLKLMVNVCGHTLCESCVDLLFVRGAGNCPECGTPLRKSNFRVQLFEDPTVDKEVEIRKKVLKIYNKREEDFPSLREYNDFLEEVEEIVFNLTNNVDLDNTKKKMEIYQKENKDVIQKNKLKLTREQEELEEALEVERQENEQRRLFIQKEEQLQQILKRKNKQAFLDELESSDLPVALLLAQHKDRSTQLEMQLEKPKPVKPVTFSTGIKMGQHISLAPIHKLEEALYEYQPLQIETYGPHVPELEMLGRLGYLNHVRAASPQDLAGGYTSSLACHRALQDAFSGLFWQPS
The test system of a further assay is MB453 cells. In words: Inhibition of cell proliferation (CyQUANT Direct), MB453. The assay is classed as cell-based, human. The note with it: Homo sapiens, MB453, 72-hour.

Where only a bound is given, the exact number is not on record here.

The term IC50 denotes the concentration needed to halve the response being measured. Read a low IC50 as higher potency. As to `Cc1noc(C)c1-c1ccc2c(-c3nc(N[C@H]4CCCNC4)ncc3C(F)(F)F)n[nH]c2c1` [Compound 100, 4-[6-(3,5-dimethylisoxazol-4-yl)-1H-indazol-3-yl]-N-[(3S)-3-piperidyl]-5-(trifluoromethyl)pyrimidin-2-amine], the IC50 was under 0.1 µM with HCC70 cells; 0.1 to 0.5 µM with COV318 cells; over 0.5 µM against CDK2/Cyclin E1 complex; over 0.5 µM in assay [1]; under 0.1 µM in the assay with COV504 cells; over 0.5 µM at CDK9/Cyclin T1 complex. The IC50 was under 0.03 µM in assay [2] and under 0.1 µM in the assay on MB453 cells.
For `Cc1nscc1-c1ccc2c(-c3nc(N[C@H]4CCCNC4)ncc3C(F)(F)F)c[nH]c2n1` [Compound 149], the half-maximal inhibitory concentration (IC50) in the assay on HCC70 cells is under 0.1 µM; in the assay on COV318 cells it was under 0.1 µM; at CDK2/Cyclin E1 complex it was over 0.5 µM; in assay [1], over 0.5 µM; in the assay on COV504 cells, under 0.1 µM; against CDK9/Cyclin T1 complex it was over 0.5 µM. The IC50 in assay [2] is under 0.03 µM; with MB453 cells it was under 0.1 µM.
For the compound `Cc1nnc(-c2ccc3c(-c4nc(N[C@@H]5CC[C@@H](C)NC5)ncc4C(F)(F)F)c[nH]c3n2)s1` [Compound 158, N-[(3R,6R)-6-methyl-3-piperidyl]-4-[6-(5-methyl-1,3,4-thiadiazol-2-yl)-1H-pyrrolo[2,3-b]pyridin-3-yl]-5-(trifluoromethyl)pyrimidin-2-amine], the IC50 with HCC70 cells is under 0.1 µM; in the assay with COV318 cells, 0.1 to 0.5 µM; at CDK2/Cyclin E1 complex, over 0.5 µM; in assay [1], over 0.5 µM; in the assay with COV504 cells, under 0.1 µM; against CDK9/Cyclin T1 complex it was over 0.5 µM. In addition, the figures for the IC50 (in assay [2]; with MB453 cells) were under 0.03 µM and under 0.1 µM, respectively.
Consider `Cc1noc(C)c1-c1ccc2c(-c3nc(N[C@@H]4CNC[C@H](O)C4)ncc3C(F)(F)F)c[nH]c2c1` [Compound 105, (3R,5S)-5-[[4-[6-(3,5-dimethylisoxazol-4-yl)-1H-indol-3-yl]-5-(trifluoromethyl)pyrimidin-2-yl]amino]piperidin-3-ol], for which the IC50 was under 0.1 µM in the assay on HCC70 cells; 0.5 to 1 µM in the assay on COV318 cells; over 0.5 µM at CDK2/Cyclin E1 complex; over 0.5 µM in assay [1]; 0.1 to 0.5 µM with COV504 cells; over 0.5 µM against CDK9/Cyclin T1 complex. In addition, the IC50 in assay [2] is under 0.03 µM; in the assay with MB453 cells, 0.1 to 0.5 µM.
Regarding `Cc1nc(-c2ccc3c(-c4nc(N[C@H]5CCCNC5)ncc4C(F)(F)F)c[nH]c3c2)no1` [Compound 129, 4-[6-(5-methyl-1,2,4-oxadiazol-3-yl)-1H-indol-3-yl]-N-[(3S)-3-piperidyl]-5-(trifluoromethyl)pyrimidin-2-amine], the IC50 in the assay with HCC70 cells is under 0.1 µM; in the assay with COV318 cells, under 0.1 µM; on CDK2/Cyclin E1 complex it was over 0.5 µM; in assay [1] it was over 0.5 µM; in the assay on COV504 cells, under 0.1 µM; on CDK9/Cyclin T1 complex, over 0.5 µM. Further, the IC50 in assay [2] is under 0.03 µM; in the assay with MB453 cells it was under 0.1 µM.
Consider `Cc1nnnn1-c1ccc2c(-c3nc(N[C@H]4CCCNC4)ncc3C(F)(F)F)c[nH]c2n1` [Compound 141, 4-[6-(5-methyltetrazol-1-yl)-1H-pyrrolo[2,3-b]pyridin-3-yl]-N-[(3S)-3-piperidyl]-5-(trifluoromethyl)pyrimidin-2-amine], for which the IC50 in the assay with HCC70 cells was 0.1 to 0.5 µM; with COV318 cells it was 0.1 to 0.5 µM; against CDK2/Cyclin E1 complex, over 0.5 µM; in assay [1] it was over 0.5 µM; in the assay on COV504 cells it was under 0.1 µM; at CDK9/Cyclin T1 complex, over 0.5 µM. The half-inhibitory concentration (IC50) in assay [2] was under 0.03 µM; with MB453 cells, 0.1 to 0.5 µM.
Regarding `O[C@H]1CNC[C@@H](Nc2ncc(C(F)(F)F)c(-c3c[nH]c4cc(-c5nccs5)ccc34)n2)C1` [Compound 107], the half-maximal inhibitory concentration (IC50) is 0.1 to 0.5 µM with HCC70 cells; 0.1 to 0.5 µM in the assay with COV318 cells; over 0.5 µM against CDK2/Cyclin E1 complex; over 0.5 µM in assay [1]; 0.1 to 0.5 µM with COV504 cells; over 0.5 µM at CDK9/Cyclin T1 complex. The values for the IC50 (in assay [2]; in the assay with MB453 cells) were under 0.03 µM and 0.1 to 0.5 µM, respectively.
